Measured values from the NIST ThermoML archive (doi:10.1016/j.jct.2006.08.011).
± gives the expanded uncertainty stated by the source.

What was measured:
[1] = refractive index (Na D-line) (dimensionless); settings: 298.15 K; 101.33 kPa; Liquid; Standard Abbe refractometry
[2] = 298.15 K; 101.33 kPa; Liquid
[3] = excess molar enthalpy (molar enthalpy of mixing); xn = mol fraction of the nth substance listed; settings: 298.15 K, 101 kPa, Liquid
[4] = refractive index (Na D-line) (dimensionless); xn = mol fraction of the nth substance listed; settings: 298.15 K, 101.3 kPa, Liquid, Standard Abbe refractometry
[5] = xn = mol fraction of the nth substance listed; settings: 298.15 K, Liquid

CCCCCC [hexane]
refractive index [1]: 1.3723 ± 0.0004 | mass density [2]: 654.68 ± 0.7 kg/m3

CCCCCC [hexane] + Cc1ccccc1
excess molar enthalpy ([3]; x1 = 0.0525): 0.0294 ± 0.000956 kcal/mol | excess molar enthalpy ([3]; x1 = 0.0957): 0.0507 ± 0.00146 kcal/mol | excess molar enthalpy ([3]; x1 = 0.1586): 0.0756 ± 0.00206 kcal/mol | excess molar enthalpy ([3]; x1 = 0.2119): 0.0935 ± 0.00263 kcal/mol | excess molar enthalpy ([3]; x1 = 0.2672): 0.109 ± 0.00287 kcal/mol | excess molar enthalpy ([3]; x1 = 0.3135): 0.118 ± 0.00311 kcal/mol | excess molar enthalpy ([3]; x1 = 0.3766): 0.126 ± 0.00335 kcal/mol | excess molar enthalpy ([3]; x1 = 0.4264): 0.13 ± 0.00335 kcal/mol | excess molar enthalpy ([3]; x1 = 0.4723): 0.131 ± 0.00335 kcal/mol | excess molar enthalpy ([3]; x1 = 0.5414): 0.128 ± 0.00335 kcal/mol | excess molar enthalpy ([3]; x1 = 0.6641): 0.115 ± 0.00311 kcal/mol | excess molar enthalpy ([3]; x1 = 0.6927): 0.109 ± 0.00287 kcal/mol | excess molar enthalpy ([3]; x1 = 0.7484): 0.0939 ± 0.00263 kcal/mol | excess molar enthalpy ([3]; x1 = 0.8045): 0.0779 ± 0.00213 kcal/mol | excess molar enthalpy ([3]; x1 = 0.8657): 0.0576 ± 0.00163 kcal/mol | excess molar enthalpy ([3]; x1 = 0.9023): 0.0438 ± 0.00129 kcal/mol | refractive index ([4]; x1 = 0.0543): 1.486 ± 0.0007 | refractive index ([4]; x1 = 0.0958): 1.4801 ± 0.0007 | refractive index ([4]; x1 = 0.1667): 1.4701 ± 0.0007 | refractive index ([4]; x1 = 0.2129): 1.4637 ± 0.0007 | refractive index ([4]; x1 = 0.2818): 1.4541 ± 0.0007 | refractive index ([4]; x1 = 0.3261): 1.4482 ± 0.0007 | refractive index ([4]; x1 = 0.3762): 1.4417 ± 0.0007 | refractive index ([4]; x1 = 0.4262): 1.4353 ± 0.0007 | refractive index ([4]; x1 = 0.4769): 1.429 ± 0.0007 | refractive index ([4]; x1 = 0.5136): 1.4246 ± 0.0007 | refractive index ([4]; x1 = 0.5742): 1.4174 ± 0.0007 | refractive index ([4]; x1 = 0.6327): 1.4107 ± 0.0007 | refractive index ([4]; x1 = 0.6862): 1.4047 ± 0.0007 | refractive index ([4]; x1 = 0.7402): 1.3987 ± 0.0007 | refractive index ([4]; x1 = 0.7958): 1.3927 ± 0.0007 | refractive index ([4]; x1 = 0.8548): 1.3866 ± 0.0007 | refractive index ([4]; x1 = 0.9106): 1.381 ± 0.0007 | refractive index ([4]; x1 = 0.9409): 1.378 ± 0.0007 | mass density ([5]; 101 kPa, x1 = 0.0524): 848.99 ± 0.37 kg/m3 | mass density ([5]; 101 kPa, x1 = 0.0926): 839.12 ± 0.39 kg/m3 | mass density ([5]; 101 kPa, x1 = 0.1636): 822.1 ± 0.41 kg/m3 | mass density ([5]; 101 kPa, x1 = 0.2011): 813.3 ± 0.43 kg/m3 | mass density ([5]; 101 kPa, x1 = 0.2475): 802.64 ± 0.45 kg/m3 | mass density ([5]; 101 kPa, x1 = 0.3184): 786.7 ± 0.48 kg/m3 | mass density ([5]; 101 kPa, x1 = 0.4088): 767.06 ± 0.51 kg/m3 | mass density ([5]; 101 kPa, x1 = 0.4739): 753.36 ± 0.53 kg/m3 | mass density ([5]; 101 kPa, x1 = 0.5096): 746 ± 0.55 kg/m3 | mass density ([5]; 101 kPa, x1 = 0.5734): 733.08 ± 0.56 kg/m3 | mass density ([5]; 101 kPa, x1 = 0.6086): 726.13 ± 0.57 kg/m3 | mass density ([5]; 101 kPa, x1 = 0.6754): 713.16 ± 0.59 kg/m3 | mass density ([5]; 101 kPa, x1 = 0.7338): 702.09 ± 0.61 kg/m3 | mass density ([5]; 101 kPa, x1 = 0.7827): 693.01 ± 0.62 kg/m3 | mass density ([5]; 101 kPa, x1 = 0.8426): 682.13 ± 0.64 kg/m3 | mass density ([5]; 101 kPa, x1 = 0.9055): 670.97 ± 0.66 kg/m3 | mass density ([5]; 101 kPa, x1 = 0.9323): 666.29 ± 0.67 kg/m3

CCCOC(=O)CC [propyl propanoate]
refractive index [1]: 1.3906 ± 0.0004 | mass density [2]: 875.48 ± 0.64 kg/m3

CCCOC(=O)CC [propyl propanoate] + Cc1ccccc1
excess molar enthalpy ([3]; x1 = 0.0547): -0.0102 ± 0.00105 kcal/mol | excess molar enthalpy ([3]; x1 = 0.1357): -0.0223 ± 0.00143 kcal/mol | excess molar enthalpy ([3]; x1 = 0.1718): -0.0263 ± 0.00155 kcal/mol | excess molar enthalpy ([3]; x1 = 0.2389): -0.0336 ± 0.00177 kcal/mol | excess molar enthalpy ([3]; x1 = 0.2823): -0.0365 ± 0.00186 kcal/mol | excess molar enthalpy ([3]; x1 = 0.3263): -0.0399 ± 0.00198 kcal/mol | excess molar enthalpy ([3]; x1 = 0.3957): -0.0421 ± 0.00206 kcal/mol | excess molar enthalpy ([3]; x1 = 0.4277): -0.0421 ± 0.00206 kcal/mol | excess molar enthalpy ([3]; x1 = 0.5486): -0.0378 ± 0.00191 kcal/mol | excess molar enthalpy ([3]; x1 = 0.5841): -0.0361 ± 0.00186 kcal/mol | excess molar enthalpy ([3]; x1 = 0.6522): -0.0328 ± 0.00177 kcal/mol | excess molar enthalpy ([3]; x1 = 0.709): -0.0293 ± 0.00165 kcal/mol | excess molar enthalpy ([3]; x1 = 0.7394): -0.0271 ± 0.00158 kcal/mol | excess molar enthalpy ([3]; x1 = 0.8031): -0.0228 ± 0.00146 kcal/mol | excess molar enthalpy ([3]; x1 = 0.8568): -0.0183 ± 0.00131 kcal/mol | excess molar enthalpy ([3]; x1 = 0.892): -0.0131 ± 0.00115 kcal/mol | excess molar enthalpy ([3]; x1 = 0.9577): -0.00583 ± 0.000932 kcal/mol | refractive index ([4]; x1 = 0.0625): 1.4858 ± 0.0007 | refractive index ([4]; x1 = 0.1072): 1.4803 ± 0.0007 | refractive index ([4]; x1 = 0.1826): 1.4712 ± 0.0007 | refractive index ([4]; x1 = 0.2232): 1.4665 ± 0.0007 | refractive index ([4]; x1 = 0.2747): 1.4605 ± 0.0007 | refractive index ([4]; x1 = 0.3426): 1.4529 ± 0.0007 | refractive index ([4]; x1 = 0.4514): 1.4411 ± 0.0007 | refractive index ([4]; x1 = 0.4907): 1.437 ± 0.0007 | refractive index ([4]; x1 = 0.5441): 1.4316 ± 0.0007 | refractive index ([4]; x1 = 0.5833): 1.4277 ± 0.0007 | refractive index ([4]; x1 = 0.6451): 1.4218 ± 0.0007 | refractive index ([4]; x1 = 0.7066): 1.416 ± 0.0007 | refractive index ([4]; x1 = 0.7346): 1.4135 ± 0.0007 | refractive index ([4]; x1 = 0.7898): 1.4085 ± 0.0007 | refractive index ([4]; x1 = 0.8508): 1.4031 ± 0.0007 | refractive index ([4]; x1 = 0.9037): 1.3986 ± 0.0007 | refractive index ([4]; x1 = 0.956): 1.3942 ± 0.0007 | mass density ([5]; 101.3 kPa, x1 = 0.0625): 863.5 ± 0.35 kg/m3 | mass density ([5]; 101.3 kPa, x1 = 0.1072): 864.46 ± 0.35 kg/m3 | mass density ([5]; 101.3 kPa, x1 = 0.1826): 865.94 ± 0.35 kg/m3 | mass density ([5]; 101.3 kPa, x1 = 0.2232): 866.69 ± 0.36 kg/m3 | mass density ([5]; 101.3 kPa, x1 = 0.2747): 867.57 ± 0.36 kg/m3 | mass density ([5]; 101.3 kPa, x1 = 0.3426): 868.66 ± 0.37 kg/m3 | mass density ([5]; 101.3 kPa, x1 = 0.4514): 870.21 ± 0.38 kg/m3 | mass density ([5]; 101.3 kPa, x1 = 0.4907): 870.73 ± 0.38 kg/m3 | mass density ([5]; 101.3 kPa, x1 = 0.5441): 871.41 ± 0.39 kg/m3 | mass density ([5]; 101.3 kPa, x1 = 0.5833): 871.86 ± 0.39 kg/m3 | mass density ([5]; 101.3 kPa, x1 = 0.6451): 872.53 ± 0.4 kg/m3 | mass density ([5]; 101.3 kPa, x1 = 0.7066): 873.14 ± 0.41 kg/m3 | mass density ([5]; 101.3 kPa, x1 = 0.7346): 873.41 ± 0.42 kg/m3 | mass density ([5]; 101.3 kPa, x1 = 0.7898): 873.9 ± 0.43 kg/m3 | mass density ([5]; 101.3 kPa, x1 = 0.8508): 874.42 ± 0.44 kg/m3 | mass density ([5]; 101.3 kPa, x1 = 0.9037): 874.81 ± 0.45 kg/m3 | mass density ([5]; 101.3 kPa, x1 = 0.956): 875.2 ± 0.46 kg/m3

Cc1ccccc1 [toluene]
refractive index [1]: 1.4941 ± 0.0004 | mass density [2]: 862.11 ± 0.18 kg/m3
